Source: US12486253B2, “Therapeutics for the degradation of mutant BRAF” (C4 THERAPEUTICS, INC., priority 2021, dated 2025)

Molecular target: BRAF V600E (Homo sapiens, UniProt P15056, V600E)
Test: HiBiT cellular BRAF^V600E degradation assay
Type: cell-based
Settings: A375.10 cells, 24 h; for DC50: concentration at which 50% of total cellular BRAF^V600E is degraded; for Emax: residual protein remaining in the cell, read-out: HiBit 24 h Emax

Sequence of BRAF V600E (P15056 whole entry V600E): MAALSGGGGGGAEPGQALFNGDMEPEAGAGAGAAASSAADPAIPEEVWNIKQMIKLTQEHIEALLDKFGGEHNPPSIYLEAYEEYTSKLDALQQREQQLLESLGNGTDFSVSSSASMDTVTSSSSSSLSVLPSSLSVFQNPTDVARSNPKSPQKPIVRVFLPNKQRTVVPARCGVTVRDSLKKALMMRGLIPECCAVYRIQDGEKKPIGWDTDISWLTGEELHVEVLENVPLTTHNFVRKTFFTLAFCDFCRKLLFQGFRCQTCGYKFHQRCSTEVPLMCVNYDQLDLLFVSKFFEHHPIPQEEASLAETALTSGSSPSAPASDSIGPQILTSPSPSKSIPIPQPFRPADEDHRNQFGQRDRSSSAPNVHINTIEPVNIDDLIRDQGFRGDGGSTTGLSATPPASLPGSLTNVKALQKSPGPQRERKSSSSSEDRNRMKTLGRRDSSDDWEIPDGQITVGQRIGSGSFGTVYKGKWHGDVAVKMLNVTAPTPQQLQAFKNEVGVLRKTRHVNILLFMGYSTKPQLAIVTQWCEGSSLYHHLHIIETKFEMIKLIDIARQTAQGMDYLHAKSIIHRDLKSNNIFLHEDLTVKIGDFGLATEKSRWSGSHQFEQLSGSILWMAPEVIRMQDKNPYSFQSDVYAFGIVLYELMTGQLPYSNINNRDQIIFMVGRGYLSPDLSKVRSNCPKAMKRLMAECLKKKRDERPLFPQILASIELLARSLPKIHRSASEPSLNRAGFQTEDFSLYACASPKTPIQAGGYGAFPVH

SMILES | DC50 [nM] | Emax [%]
CCN(C)S(=O)(=O)Nc1ccc(F)c(Oc2ccc3ncn([C@H]4COC5(CCN(C(=O)CN6CCC(c7cc(OC)c(NC8CCC(=O)NC8=O)cc7F)CC6)CC5)C4)c(=O)c3c2)c1C#N (stereo partly drawn) [Example 75, (3R)-3-[6-[2-cyano-3-[[ethyl(methyl)sulfamoyl]amino]-6-fluorophenoxy]-4-oxoquinazolin-3-yl]-8-[2-[4-[4-[(2,6-dioxopiperidin-3-yl)amino]-2-fluoro-5-methoxyphenyl]piperidin-1-yl]acetyl]-1-oxa-8-azaspiro[4.5]decane] | 43.2 | 8.31
CCN(C)S(=O)(=O)Nc1ccc(F)c(Oc2ccc3ncn([C@H]4COC5(CCN(C(=O)CN6CCCC(c7ccc(NC8CCC(=O)NC8=O)cc7F)CC6)CC5)C4)c(=O)c3c2)c1C#N (stereo partly drawn) [Example 76, (3R)-3-[6-[2-cyano-3-[[ethyl(methyl)sulfamoyl]amino]-6-fluorophenoxy]-4-oxoquinazolin-3-yl]-8-[2-[4-[4-[(2,6-dioxopiperidin-3-yl)amino]-2-fluorophenyl]azepan-1-yl]acetyl]-1-oxa-8-azaspiro[4.5]decane] | 50.1 | 13.2
CCN(C)S(=O)(=O)Nc1ccc(F)c(Oc2ccc3ncn(C4COC5(CCN(C(=O)CN6CCC(c7ccc(NC8CCC(=O)NC8=O)cc7F)CC6)CC5)C4)c(=O)c3c2N)c1C#N (centres unmarked) [Example 81, 3-[5-amino-6-[2-cyano-3-[[ethyl(methyl)sulfamoyl]amino]-6-fluorophenoxy]-4-oxoquinazolin-3-yl]-8-[2-[4-[4-[(2,6-dioxopiperidin-3-yl)amino]-2-fluorophenyl]piperidin-1-yl]acetyl]-1-oxa-8-azaspiro[4.5]decane] | 25.4 | 12.2
CCN(C)S(=O)(=O)Nc1ccc(F)c(Oc2ccc3ncn(-c4cnc(N5CCN(C(=O)CN6CCC(c7ccc(NC8CCC(=O)NC8=O)cc7F)CC6)CC5)nc4)c(=O)c3c2)c1C#N (centres unmarked) [Example 84, 6-[2-cyano-3-[[ethyl(methyl)sulfamoyl]amino]-6-fluorophenoxy]-3-[2-[4-[2-[4-[4-[(2,6-dioxopiperidin-3-yl)amino]-2-fluorophenyl]piperidin-1-yl]acetyl]piperazin-1-yl]pyrimidin-5-yl]-4-oxoquinazoline] | 9.97 | 9.26
CCN(C)S(=O)(=O)Nc1ccc(F)c(Oc2ccc3ncn(-c4ccc(N5CCN(C(=O)CN6CCC(c7ccc(NC8CCC(=O)NC8=O)cc7F)CC6)CC5)nc4)c(=O)c3c2)c1C#N (centres unmarked) [Example 85, 6-[2-cyano-3-[[ethyl(methyl)sulfamoyl]amino]-6-fluorophenoxy]-3-[6-[4-[2-[4-[4-[(2,6-dioxopiperidin-3-yl)amino]-2-fluorophenyl]piperidin-1-yl]acetyl]piperazin-1-yl]pyridin-3-yl]-4-oxoquinazoline] | 15.8 | 11
CCN(C)S(=O)(=O)Nc1ccc(F)c(Oc2ccc3ncn(-c4cnc(N5CCN(C(=O)CN6CCC(c7ccc(NC8CCC(=O)NC8=O)cc7F)CC6)CC5)nc4)c(=O)c3c2F)c1C#N (centres unmarked) [Example 86, 6-[2-cyano-3-[[ethyl(methyl)sulfamoyl]amino]-6-fluorophenoxy]-3-[2-[4-[2-[4-[4-[(2,6-dioxopiperidin-3-yl)amino]-2-fluorophenyl]piperidin-1-yl]acetyl]piperazin-1-yl]pyrimidin-5-yl]-5-fluoro-4-oxoquinazoline] | 8.28 | 12.9
CCN(C)S(=O)(=O)Nc1ccc(F)c(Oc2ccc3ncn(-c4ccc(N5CCN(C(=O)CN6CCC(c7c(F)cc(NC8CCC(=O)NC8=O)cc7OC)CC6)CC5)nc4)c(=O)c3c2)c1C#N (centres unmarked) [Example 87, 6-[2-cyano-3-[[ethyl(methyl)sulfamoyl]amino]-6-fluorophenoxy]-3-[6-[4-[2-[4-[4-[(2,6-dioxopiperidin-3-yl)amino]-2-fluoro-6-methoxyphenyl]piperidin-1-yl]acetyl]piperazin-1-yl]pyridin-3-yl]-4-oxoquinazoline] | 30.3 | 10.1
